# Measurements published in patent US8574831B2, “Mutational profiles in HIV-1 reverse transcriptase correlated with phenotypic drug resistance” (Virco N.V., priority 2000, dated 2013).
# Tested on: HIV with mutations in the HIV protease sequence
# Test: Phenotypic fold resistance to protease inhibitors, protease mutations 84A/84L/84C/54M/54L/54V in a background (Examples 8-13)
# Assay type: cell-based, HIV-1
# How it was run: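 Fold-resistance equals chimeric-virus IC50 divided by IC50 of a parallel wild-type reference HIV-1 strain. Chimeras come from PCR-amplified PR/RT genes recombined into PR/RT-deleted HXB2 proviral DNA inside CD4+ T cells, then cultured with graded drug concentrations.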
smiles,measurement,setting,value
"CC(C)(C)NC(=O)[C@@H]1C[C@@H]2CCCC[C@@H]2CN1C[C@@H](O)[C@H](Cc1ccccc1)NC(=O)[C@H](CC(N)=O)NC(=O)c1ccc2ccccc2n1 [Saquinavir, saquinavir]",mean fold increase in resistance,"Table 9 #1, protease genotype WT",0.9 fold
same,mean fold increase in resistance,"Table 9 #2, protease genotype 10I",0.9 fold
same,mean fold increase in resistance,"Table 9 #3, protease genotype 46I",0.6 fold
same,mean fold increase in resistance,"Table 9 #4, protease genotype 46I + 84V",2.5 fold
same,mean fold increase in resistance,"Table 9 #5, protease genotype 46I + 84A",38.1 fold
same,mean fold increase in resistance,"Table 9 #6, protease genotype 10I + 46I",0.5 fold
same,mean fold increase in resistance,"Table 9 #7, protease genotype 10I + 46I + 84V",4.1 fold
same,mean fold increase in resistance,"Table 9 #8, protease genotype 10I + 46I + 84A",48.2 fold
same,mean fold increase in resistance,"Table 9 #9, protease genotype 10L/I + 46I + 84A",46.4 fold
same,mean fold increase in resistance,"Table 9 #10, protease genotype 10I + 46I + 84A",42.8 fold
same,mean fold increase in resistance,"Table 9 #11, protease genotype 46I + 71V",0.6 fold
same,mean fold increase in resistance,"Table 9 #12, protease genotype 46I + 71V + 84V/I",0.6 fold
same,mean fold increase in resistance,"Table 9 #13, protease genotype 46I + 71V + 84A",47.7 fold
same,mean fold increase in resistance,"Table 9 #14, protease genotype 10F + 46I + 71V",1.9 fold
same,mean fold increase in resistance,"Table 9 #15, protease genotype 10I + 46I + 71V + 84V",15.9 fold
same,mean fold increase in resistance,"Table 9 #16, protease genotype 10I + 46I + 71V + 84A",48.2 fold
same,mean fold increase in resistance,"Table 9 #17, protease genotype 10V + 46I + 71T + 84A",48.2 fold
same,mean fold increase in resistance,"Table 9 #18, protease genotype 10I + 46I + 71V + 77I",1.3 fold
same,mean fold increase in resistance,"Table 9 #19, protease genotype 10I + 46I + 71V + 77I + 84V",2.5 fold
same,mean fold increase in resistance,"Table 9 #20, protease genotype 10I + 46I + 71V + 77I + 84A",47.1 fold
same,mean fold increase in resistance,"Table 9 #21, protease genotype 10I + 33L/I + 46I + 71V + 77V/I + 84A",44.7 fold
same,mean fold increase in resistance,"Table 10 #1, protease genotype 10I + 36I + 71V",1.6 fold
same,mean fold increase in resistance,"Table 10 #2, protease genotype 10I + 36I + 71I + 84V",0.8 fold
same,mean fold increase in resistance,"Table 10 #3, protease genotype 10I + 36I + 71I + 84L",10.2 fold
same,mean fold increase in resistance,"Table 11 #1, protease genotype WT",0.9 fold
same,mean fold increase in resistance,"Table 11 #2, protease genotype 84V",0.7 fold
same,mean fold increase in resistance,"Table 11 #3, protease genotype 84C",26.4 fold
same,mean fold increase in resistance,"Table 11 #4, protease genotype 10I",0.9 fold
same,mean fold increase in resistance,"Table 11 #5, protease genotype 10I + 84V",2.7 fold
same,mean fold increase in resistance,"Table 11 #6, protease genotype 10I + 84C",37.1 fold
same,mean fold increase in resistance,"Table 11 #7, protease genotype 77I",0.3 fold
same,mean fold increase in resistance,"Table 11 #8, protease genotype 77I + 84V",3.5 fold
same,mean fold increase in resistance,"Table 11 #9, protease genotype 77I + 84C",18.1 fold
same,mean fold increase in resistance,"Table 11 #10, protease genotype 77I + 84C",18.5 fold
same,mean fold increase in resistance,"Table 11 #11, protease genotype 10I + 24I + 36I + 46I + 71V + 84C",46.4 fold
same,Fold change in IC50,"Table 12, V19263, genotype 77I",0.3 fold
same,Fold change in IC50,"Table 12, V20160, genotype WT",0.9 fold
same,Fold change in IC50,"Table 12, V021667, genotype 10I",0.9 fold
same,Fold change in IC50,"Table 12, V030496, genotype 10I + 77I",0.3 fold
same,Fold change in IC50,"Table 12, V048869, genotype 10I + 54M + 77I + 90M",5.1 fold
same,Fold change in IC50,"Table 12, V048872, genotype 33F + 54M + 77I + 90M",5.2 fold
same,Fold change in IC50,"Table 12, V048873, genotype 33F + 54M + 77I + 90M",3.1 fold
same,Fold change in IC50,"Table 12, V048877, genotype 10I + 33F + 77I + 90M",1.5 fold
same,Fold change in IC50,"Table 12, V048878, genotype 10I + 33F + 54M + 71V + 77I + 90M",4.0 fold
same,Fold change in IC50,"Table 12, V048879, genotype 10I + 33F + 54M + 71V + 77I + 90M",51.8 fold
same,Fold change in IC50,"Table 12, V048880, genotype 10I + 33F + 77I + 90M",2.7 fold
same,Fold change in IC50,"Table 12, V052940, genotype 71V",0.8 fold
same,Fold change in IC50,"Table 12, V052942, genotype 10I + 71V",0.8 fold
same,Fold change in IC50,"Table 12, V052943, genotype 10I + 90M",1.1 fold
same,Fold change in IC50,"Table 12, V052944, genotype 10I + 90M",0.7 fold
same,Fold change in IC50,"Table 12, V052945, genotype 77I + 90M",1.4 fold
same,Fold change in IC50,"Table 12, V052946, genotype 71V + 90M",1.4 fold
same,Fold change in IC50,"Table 12, V052947, genotype 10I + 77I + 90M",3.9 fold
same,Fold change in IC50,"Table 12, V052948, genotype 10I + 71V + 90M",4.8 fold
same,Fold change in IC50,"Table 12, V052949, genotype 10I + 71V + 77I + 90M",2.1 fold
same,Fold change in IC50,"Table 12, V052950, genotype 33F",1.2 fold
same,Fold change in IC50,"Table 12, V052951, genotype 33F + 77I",0.4 fold
same,Fold change in IC50,"Table 12, V052953, genotype 10I + 33F + 77I",1.2 fold
same,Fold change in IC50,"Table 12, V052954, genotype 33F + 77I + 90M",1.7 fold
same,Fold change in IC50,"Table 12, V052955, genotype 33F + 71V + 90M",20.4 fold
same,Fold change in IC50,"Table 12, V052977, genotype 10I + 33F + 54M",0.5 fold
same,Fold change in IC50,"Table 12, V052978, genotype 10I + 33F + 54M + 71V + 90M",9.9 fold
same,Fold change in IC50,"Table 12, V052979, genotype 10I + 54M",1.4 fold
same,Fold change in IC50,"Table 12, V052980, genotype 10I + 54M + 90M",1.4 fold
same,Fold change in IC50,"Table 12, V052981, genotype 10I + 54M + 71V + 90M",5.4 fold
same,Fold change in IC50,"Table 12, V052982, genotype 10I + 54M + 71V + 77I + 90M",4.2 fold
same,Fold change in IC50,"Table 12, V053832, genotype 10I + 33F",0.5 fold
